According to ChEMBL document CHEMBL1136451, “Semi-synthetic glycopeptide antibacterials” (Bioorg Med Chem Lett, 2003):
In brackets after ≈: the same amount, converted by molar mass.

Legend:
Enterococcus faecalis = experiment: Inhibitory activity of compound against VanA Enterococcus faecalis MGH-01; format: functional, organism-based
Staphylococcus aureus [1] = experiment: Inhibitory activity of compound against Staphylococcus aureus ATCC 33591; format: functional, organism-based
Streptococcus agalactiae = experiment: Inhibitory activity of compound against Streptococcus agalactiae KPB-01; format: functional, organism-based
Enterococcus sp. = experiment: Antibacterial activity against Enterococcus species., VanA; format: functional
Streptococcus pneumoniae = experiment: Antibacterial activity against Streptococcus pneumoniae; format: functional
Staphylococcus aureus [2] = experiment: Antibacterial activity against Methicillin resistant staphylococcus aureus (MRSA); format: functional
[3] = Cmax (Tissue distribution) of compound was determined at a dose of 5 mg/kg in human; format: ADME, organism-based; parameters: dose 5 mg/kg; details: in vivo
[4] = Half life of compound was determined in man with once daily dosing; format: ADME; details: human
Staphylococcus aureus [5] = experiment: Antibacterial activity against Vancomycin resistant staphylococcus aureus (VRSA); format: functional

CCCCCCCCCCNCCN[C@@]1(C)C[C@H](O[C@H]2[C@H](Oc3c4cc5cc3Oc3ccc(cc3Cl)[C@@H](O)[C@@](C)(NC(=O)[C@@H](CC(C)C)NC)C(=O)N[C@@H](CC(N)=O)C(=O)N[C@H]5C(=O)N[C@H]3C(=O)N[C@H](C(=O)N[C@H](C(=O)O)c5cc(O)c(CNCP(=O)(O)O)c(O)c5-c5cc3ccc5O)[C@H](O)c3ccc(c(Cl)c3)O4)O[C@H](CO)[C@@H](O)[C@@H]2O)O[C@@H](C)C1O (stereo not given in full) [listing 1 of 2 here]
IC50 (Enterococcus faecalis): 10 µg/mL (≈ 5.65 µM) | IC50 (Staphylococcus aureus [1]): 23 µg/mL (≈ 13 µM) | IC50 (Streptococcus agalactiae): 15 µg/mL (≈ 8.48 µM)

CN[C@H](CC(C)C)C(=O)N[C@H]1C(=O)N[C@@H](CC(N)=O)C(=O)N[C@H]2C(=O)N[C@H]3C(=O)N[C@H](C(=O)N[C@H](C(=O)O)c4cc(O)cc(O)c4-c4cc3ccc4O)[C@H](O)c3ccc(c(Cl)c3)Oc3cc2cc(c3O[C@@H]2O[C@H](CO)[C@@H](O)[C@H](O)[C@H]2O[C@H]2C[C@](C)(N)[C@H](O)[C@H](C)O2)Oc2ccc(cc2Cl)[C@H]1O [VANCOMYCIN]
MIC90 (Enterococcus sp.): 4 µg/mL (≈ 2.76 µM) | MIC90 (Streptococcus pneumoniae): 8 ng/mL (≈ 0.00552 µM) | MIC90 (Staphylococcus aureus [2]): 1 µg/mL (≈ 0.69 µM)

CCCCCCCCCCNCCN[C@@]1(C)C[C@H](O[C@H]2[C@H](Oc3c4cc5cc3Oc3ccc(cc3Cl)[C@@H](O)[C@@H](NC(=O)[C@@H](CC(C)C)NC)C(=O)N[C@@H](CC(N)=O)C(=O)N[C@H]5C(=O)N[C@H]3C(=O)N[C@H](C(=O)N[C@H](C(=O)O)c5cc(O)c(CNCP(=O)(O)O)c(O)c5-c5cc3ccc5O)[C@H](O)c3ccc(c(Cl)c3)O4)O[C@H](CO)[C@@H](O)[C@@H]2O)O[C@@H](C)[C@H]1O
Cmax [3]: 45000 ng/mL | half-life [4]: 420 min

CN[C@H]1C(=O)N[C@@H]2Cc3ccc(cc3)Oc3cc4cc(c3O[C@@H]3O[C@H](C(=O)O)[C@@H](O)[C@H](O)[C@H]3NC(=O)CCCCCCCCC(C)C)Oc3ccc(cc3Cl)[C@@H](O)[C@@H]3NC(=O)[C@H](NC(=O)[C@@H]4NC(=O)[C@@H](NC2=O)c2cc(cc(O)c2Cl)Oc2cc1ccc2O)c1ccc(O)c(c1)-c1c(O[C@H]2O[C@H](CO)[C@@H](O)[C@H](O)[C@@H]2O)cc(O)cc1[C@@H](C(=O)NCCCN(C)C)NC3=O [DALBAVANCIN]
MIC90 (Enterococcus sp.): 128 µg/mL (≈ 70.5 µM) | MIC90 (Streptococcus pneumoniae): 60 ng/mL (≈ 0.033 µM) | MIC90 (Staphylococcus aureus [2]): 0.25 µg/mL (≈ 0.138 µM)

CCCCCCCCCCNCCN[C@@]1(C)C[C@H](O[C@H]2[C@H](Oc3c4cc5cc3Oc3ccc(cc3Cl)[C@@H](O)[C@@](C)(NC(=O)[C@@H](CC(C)C)NC)C(=O)N[C@@H](CC(N)=O)C(=O)N[C@H]5C(=O)N[C@H]3C(=O)N[C@H](C(=O)N[C@H](C(=O)O)c5cc(O)c(CNCP(=O)(O)O)c(O)c5-c5cc3ccc5O)[C@H](O)c3ccc(c(Cl)c3)O4)O[C@H](CO)[C@@H](O)[C@@H]2O)O[C@@H](C)C1O (stereo not given in full) [listing 2 of 2 here]
MIC90 (Enterococcus sp.): 8 µg/mL (≈ 4.52 µM) | MIC90 (Streptococcus pneumoniae): 8 ng/mL (≈ 0.00452 µM) | MIC (Staphylococcus aureus [5]): 2 µg/mL (≈ 1.13 µM) | MIC90 (Staphylococcus aureus [2]): 1 µg/mL (≈ 0.565 µM)

CN[C@H](CC(C)C)C(=O)N[C@H]1C(=O)N[C@@H](CC(N)=O)C(=O)N[C@H]2C(=O)N[C@H]3C(=O)N[C@H](C(=O)N[C@H](C(=O)O)c4cc(O)cc(O)c4-c4cc3ccc4O)[C@H](O[C@H]3C[C@](C)(N)[C@@H](O)[C@H](C)O3)c3ccc(c(Cl)c3)Oc3cc2cc(c3O[C@@H]2O[C@H](CO)[C@@H](O)[C@H](O)[C@H]2O[C@H]2C[C@](C)(NCc3ccc(-c4ccc(Cl)cc4)cc3)[C@@H](O)[C@H](C)O2)Oc2ccc(cc2Cl)[C@H]1O [ORITAVANCIN]
MIC90 (Enterococcus sp.): 4 µg/mL (≈ 2.23 µM) | MIC90 (Streptococcus pneumoniae): 8 ng/mL (≈ 0.00446 µM) | MIC (Staphylococcus aureus [5]): 0.5 µg/mL (≈ 0.279 µM) | MIC90 (Staphylococcus aureus [2]): 1 µg/mL (≈ 0.558 µM)

CCCCCCCCCCNCCN[C@@]1(C)C[C@H](O[C@H]2[C@H](Oc3c4cc5cc3Oc3ccc(cc3Cl)[C@@H](O)[C@]3(C)NC(=O)[C@H](NC(=O)[C@@H]5NC(=O)[C@H](CC(N)=O)NC(=O)[C@](C)(NC(=O)[C@@H](CC(C)C)NC)[C@H](O)c5ccc(c(Cl)c5)O4)c4ccc(O)c(c4)-c4c(O)cc(O)cc4[C@@H](C(=O)O)NC3=O)O[C@H](CO)[C@@H](O)[C@@H]2O)O[C@@H](C)C1O (stereo not given in full)
MIC (Staphylococcus aureus [5]): 0.4 µg/mL (≈ 0.241 µM)
